From patent publication US7109012B2, “Recombinant lysophosphatidic acid phosphatase” (Azwell Inc., priority 1998, dated 2006)

Legend:
Format in all cases: biochemical
bovine LPA phosphatase [1] = molecular target: T1, bovine LPA phosphatase (Bos taurus, UniProt A6H757); experiment: Substrate specificity, free phosphate quantified by molybdate/ascorbic acid absorbance at 795 nm; settings: 37° C., 15 minutes, pH 7.5
T1 construct: from tissue; host or cells: bovine brain, cytosol fraction
T1 sequence (A6H757 33-429): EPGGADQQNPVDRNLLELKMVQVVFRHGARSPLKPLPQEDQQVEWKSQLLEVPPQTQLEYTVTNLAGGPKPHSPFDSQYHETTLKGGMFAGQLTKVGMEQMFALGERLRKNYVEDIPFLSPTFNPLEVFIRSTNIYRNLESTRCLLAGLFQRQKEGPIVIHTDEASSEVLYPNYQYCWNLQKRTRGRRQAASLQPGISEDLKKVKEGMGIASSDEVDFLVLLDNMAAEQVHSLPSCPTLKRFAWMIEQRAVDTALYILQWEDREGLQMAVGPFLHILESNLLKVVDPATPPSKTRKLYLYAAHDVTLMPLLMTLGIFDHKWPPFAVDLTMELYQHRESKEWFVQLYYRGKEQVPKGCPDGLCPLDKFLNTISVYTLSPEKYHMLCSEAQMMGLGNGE
Description: The activity for the LPA Phosphatase was determined in 50 μl of a reaction mixture [50 mM Tris-maleic acid (pH 7.5), 50 μM monooleoyl-[9,10-^3H]-lysophosphatidic acid (5×10^4 dpm), Triton™-X100 at 4-fold molar concentration of the substrate and enzymes at various concentrations]. The above mixture was incubated at 37° C. for 15 minutes, and the enzyme activity was determined by measuring the generated [^3H]monooleoylglycerol.
Each of the enzyme reaction solutions containing various substrates was reacted in the same manner as in Test Example 1, and 25 μl of perchloric acid was added to terminate the reaction. Seventy-five microliters of […], 25 μl of 10% ammonium molybdate and 50 μl of 10% ascorbic acid were further added thereto. The mixed solution was boiled at 95° C. for 5 minutes, and thereafter the absorbance at 795 nm was determined to quantify free phosphate.

[2] = molecular target: T2, Recombinant LPA Phosphatase (Homo sapiens, UniProt Q9NPH0); experiment: Determination reagent (Reagent a / Reagent b), coupled enzymatic phosphate assay, absorbance at 570 nm; settings: 5 minutes after Reagent b; for whether assayed by the determination reagent (change in absorbance at 570 nm): 0.2 mmol/l sample, 37° C.
T2 construct: comprises a signal peptide consisting of 40 amino acid residues at N-terminal, and was a novel phosphatase having 421 amino acid residues; 6xHis; made in house; host or cells: E. coli JM109, vector pQE-30
T2 sequence (Q9NPH0 48-428 limits assumed): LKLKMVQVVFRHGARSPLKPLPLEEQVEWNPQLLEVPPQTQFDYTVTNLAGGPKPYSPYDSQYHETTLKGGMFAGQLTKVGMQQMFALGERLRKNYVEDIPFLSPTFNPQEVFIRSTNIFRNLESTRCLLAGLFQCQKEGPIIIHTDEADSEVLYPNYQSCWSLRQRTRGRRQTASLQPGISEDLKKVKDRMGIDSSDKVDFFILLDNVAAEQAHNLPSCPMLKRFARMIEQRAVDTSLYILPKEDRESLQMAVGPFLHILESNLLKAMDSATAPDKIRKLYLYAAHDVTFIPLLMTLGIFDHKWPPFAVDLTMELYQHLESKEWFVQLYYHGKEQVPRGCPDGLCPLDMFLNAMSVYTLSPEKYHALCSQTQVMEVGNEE
Description: The following determination reagents (Reagent a, Reagent b) were prepared.
Each of the various LPAs such as 1-palmitoyl-LPA, 1-stearoyl-LPA, 1-oleoyl-LPA, 2-oleoyl-LPA, 1-linoleoyl-LPA and 1-arachidonoyl-LPA was dissolved in physiological saline containing a surfactant, to prepare a 0.2 mmol/l sample. Two-hundred and forty microliters of Reagent a was added to 8 μl of the sample, and the mixture was reacted at 37° C. for 5 minutes. Thereafter, 80 μl of Reagent b was added thereto, and the mixture was further reacted at 37° C. for 5 minutes. The change in the absorbance at a wavelength of 570 nm for 5 minutes after adding Reagent b was determined using reagent blank as a control.
The absorbance dramatically increases after addition of reagent b, reaching a peak in several minutes. In addition, each of various phospholipids such as 1,2-dipalmitoylphosphatidic acid (1,2-dipalmitoyl-PA), 1-palmitoylphosphatidylethanolamine (1-palmitoyl-LPE), and 1-palmitoylphosphatidylcholine (1-palmitoyl-LPC) was dissolved in physiological saline containing a surfactant, to prepare a 0.2 mmol/l sample. The absorbance was determined by the same procedures.
Further, the change in the absorbance was determined by the same procedures for each of commercially available control sera, 0.2 mM 1-oleoyl-LPA, and one prepared by adding 1-oleoyl-LPA to the commercially available control serum so as to be 0.2 mM. The determination accuracy (%) of LPA was calculated from each of the obtained changes in the absorbance by the following equation: […]

bovine LPA phosphatase [3] = molecular target: T1, bovine LPA phosphatase; experiment: Hydrolysis of [3H]1-oleoyl-LPA evaluated by TLC; settings: 5 nmol substrate, enzyme 0-150 ng
Description: The experiment for the specific activity and the reaction rate, and the like is performed by using the following separation method. Concretely, the above enzyme reaction product (50 μl of a mixture) was lyophilized, and monooleoylglycerol was added as a carrier. Thereafter, the mixture was analyzed by thin-layer chromatography (TLC) using a solvent system of n-butanol/acetic acid/water (30.4/4.8/4.8). The TLC plate was exposed to iodine steam, and spots of the monooleoylglycerol were scraped off, and the radioactivity was determined.
Next, in order to confirm the reactivity with 1-oleoyl-LPA in detail, the enzyme reaction was carried out in the same manner as in Test Example 2 using [^3H]1-oleoyl-LPA (5 nmol, 1×10^5 dpm) as a substrate, and evaluated by TLC (FIG. 6).

bovine LPA phosphatase [4] = molecular target: T1, bovine LPA phosphatase; experiment: Reactivity with [32P]LPA or [32P]PA, radioactivity of the aqueous layer; settings: enzyme 0-175 ng, substrate 0-100 μM
Source text: FIG. 7 is a graph for evaluating the reactivity of bovine LPA phosphatase with [^32P]LPA or [^32P] PA, each being previously purified with TLC.
In order to further confirm in detail the reactivity when 1-oleoyl-LPA and dioleoyl-PA were used as substrates, [^32P]LPA and [^32P]PA were used as substrates, which had been labeled by using [γ-^32P]ATP and E. coli DG kinase [Waggoner, D. W. et al., (1996) J. Biol. Chem. 271, 16506–16509], and purified with TLC previously. Each of the reactions was carried out by varying the enzyme amount (0–175 ng), or varying the concentration of the substrate (0–100 μM). The enzyme reaction was terminated with 100 μl of 0.1 N hydrochloric acid in methanol solution, and 200 μl of chloroform and 1 M magnesium chloride were each added. The mixture was vigorously mixed, and thereafter centrifuged at 1,000×g for 5 minutes. The radioactivity of 175 μl of the aqueous layer was determined to evaluate the enzyme reaction (FIG. 7).

Compound	hydrolysis by bovine LPA phosphatase (free phosphate) (bovine LPA phosphatase [1])	other results
phosphatidic acid	did not hydrolyze	
CCCCCCCCCCCCCCCC(=O)OC[C@@H](O)COP(=O)([O-])OCC[N+](C)(C)C [LPC, 1-palmitoylphosphatidylcholine]		whether assayed by the determination reagent (change in absorbance at 570 nm) [2]: cannot substantially be done
[3H]/C(CCCCCCCC)=C(\[3H])CCCCCCCC(=O)OC[C@@H](O)COP(=O)(O)O [[^3H]1-oleoyl-LPA, monooleoyl-[9,10-^3H]-lysophosphatidic acid]		hydrolysis to [3H]1-oleoylglycerol (TLC) (bovine LPA phosphatase [3]): hydrolyzed
cardiolipin	did not hydrolyze	
CCCCCCCCCCCCC/C=C/[C@@H](O)[C@@H](N)COP(=O)(O)O [sphingosine 1-phosphate]	did not hydrolyze	
bisphosphatidic acid	did not hydrolyze	
CCCCCCCC/C=C\CCCCCCCC(=O)OC[C@@H](O)COP(=O)(O)O [1-oleoyl-LPA, 1-oleoyl-lysophosphatidic acid]	strongly hydrolyzed	Changes in Absorbance ([2]; 0.2 mmol/l, 570 nm): 0.0988
Lysophosphatidic acid [LPA]		reactivity of bovine LPA phosphatase with 32P-labelled substrate (bovine LPA phosphatase [4]): extremely high reactivity
ceramide 1-phosphate	did not hydrolyze	
CCCCCCCCCCCCCCCC(=O)OC[C@H](COP(=O)(O)O)OC(=O)CCCCCCCCCCCCCCC [PA, 1,2-dipalmitoylphosphatidic acid]		whether assayed by the determination reagent (change in absorbance at 570 nm) [2]: cannot substantially be done
O=P(O)(O)OCC(O)CO (stereo not drawn) [glycerol phosphate]	did not hydrolyze	
